Assay results from PubChem BioAssay AID328 (DTP/NCI, 2004).
Where “and” joins values, the source holds several entries; their conditions need not be identical. Equal values may be shown once. Inconclusive results and toxic doses are left out.

System: BDF1 mice, P388 leukemia ip, median survival T/C
Assay: NCI In Vivo Anticancer Drug Screen. Data for tumor model P388 Leukemia (intraperitoneal) in B6D2F1 (BDF1) mice
Details: endpoint: median survival time, higher = longer survival
Method in brief: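 Each value expresses how treatment altered survival: treated-mouse outcome over vehicle-mouse outcome, both groups bearing the transplanted tumour.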

[1] = dose: 100.0 mg/kg/injection, schedule: Q04DX003 (ip), vehicle: Klucel (hydroxypropylcellulose) (HPC)
[2] = dose: 200.0 mg/kg/injection, schedule: Q04DX003 (ip), vehicle: Klucel (hydroxypropylcellulose) (HPC)
[3] = dose: 400.0 mg/kg/injection, schedule: Q04DX003 (ip), vehicle: Klucel (hydroxypropylcellulose) (HPC)
[4] = dose: 100.0 mg/kg/injection, schedule: Q04DX003 (ip), vehicle: saline with Tween-80
[5] = dose: 200.0 mg/kg/injection, schedule: Q04DX003 (ip), vehicle: saline with Tween-80
[6] = dose: 400.0 mg/kg/injection, schedule: Q04DX003 (ip), vehicle: saline with Tween-80
[7] = dose: 25.0 mg/kg/injection, schedule: Q01DX001 (ip), vehicle: saline sonified
[8] = dose: 50.0 mg/kg/injection, schedule: Q01DX001 (ip), vehicle: saline sonified
[9] = dose: 100.0 mg/kg/injection, schedule: Q01DX001 (ip), vehicle: saline sonified
[10] = dose: 100.0 mg/kg/injection, schedule: Q01DX009 (ip), vehicle: saline with Tween-80
[11] = dose: 200.0 mg/kg/injection, schedule: Q01DX009 (ip), vehicle: saline with Tween-80
[12] = dose: 400.0 mg/kg/injection, schedule: Q01DX009 (ip), vehicle: saline with Tween-80
[13] = dose: 50.0 mg/kg/injection, schedule: Q01DX009 (ip), vehicle: saline with Tween-80

`O=Cc1c2ccc(Cl)cc2nc2cc(Cl)ccc12` was tested, and the T/C (dose: 200.0 mg/kg/injection, schedule: Q01DX001 (ip), vehicle: saline with Tween-80) was 91 % of control.
With `COC(=O)[C@]1(C)CCC[C@]2(C)c3ccc(C(C)C)cc3CC[C@@H]12` the T/C (dose: 0.5 mg/kg/injection, schedule: Q01DX009 (ip), vehicle: Klucel (hydroxypropylcellulose) (HPC)) was 100 % of control, the T/C (dose: 0.5 mg/kg/injection, schedule: Q04DX003 (ip), vehicle: Klucel (hydroxypropylcellulose) (HPC)) was 100 % of control and the T/C (dose: 1.0 mg/kg/injection, schedule: Q01DX009 (ip), vehicle: Klucel (hydroxypropylcellulose) (HPC)) was 103 % of control. The T/C (dose: 1.0 mg/kg/injection, schedule: Q04DX003 (ip), vehicle: Klucel (hydroxypropylcellulose) (HPC)) was 100 % of control, the T/C (dose: 2.0 mg/kg/injection, schedule: Q01DX009 (ip), vehicle: Klucel (hydroxypropylcellulose) (HPC)) was 92 % of control and the T/C (dose: 2.0 mg/kg/injection, schedule: Q04DX003 (ip), vehicle: Klucel (hydroxypropylcellulose) (HPC)) was 104 % of control.
For `C/C(N=Nc1ccccc1)=N\Nc1cccc(C(F)(F)F)c1`, the T/C (dose: 50.0 mg/kg/injection, schedule: Q01DX009 (ip), vehicle: Klucel (hydroxypropylcellulose) (HPC)) was 100 % of control, the T/C (dose: 100.0 mg/kg/injection, schedule: Q01DX009 (ip), vehicle: Klucel (hydroxypropylcellulose) (HPC)) was 105 % of control and the T/C [1] was 104 % of control. For the same compound, the T/C (dose: 200.0 mg/kg/injection, schedule: Q01DX009 (ip), vehicle: Klucel (hydroxypropylcellulose) (HPC)) was 100 % of control, the T/C [2] was 104 % of control and the T/C [3] was 108 % of control.
In the case of `O=C(CC(O)(C(F)(F)F)C(F)(F)F)c1cccs1`, the T/C (dose: 132.0 mg/kg/injection, schedule: Q04DX003 (ip), vehicle: saline with Tween-80) is reported as 105 % of control.
For `O=C(O)CNC(=O)/C(=C\c1[nH]c(=O)[nH]c(=O)c1Br)NC(=O)c1ccccc1`, the T/C [4] was 90 % of control, the T/C [5] was 104 % of control and the T/C [6] was 100 % of control.
`COc1ccc(C(=O)C(Br)C(Br)C(=O)O)cc1` (centres undefined) was tested, and the T/C (dose: 12.5 mg/kg/injection, schedule: Q01DX009 (ip), vehicle: saline) was 100 % of control, the T/C (dose: 25.0 mg/kg/injection, schedule: Q01DX009 (ip), vehicle: saline) was 95 % of control and 104 % of control and the T/C (dose: 25.0 mg/kg/injection, schedule: Q04DX003 (ip), vehicle: saline) was 100 % of control. For the same compound, the T/C (dose: 50.0 mg/kg/injection, schedule: Q01DX009 (ip), vehicle: saline) was 95 % of control and 112 % of control, the T/C (dose: 50.0 mg/kg/injection, schedule: Q04DX003 (ip), vehicle: saline) was 109 % of control and the T/C (dose: 100.0 mg/kg/injection, schedule: Q01DX009 (ip), vehicle: saline) was 105 % of control. The T/C (dose: 100.0 mg/kg/injection, schedule: Q04DX003 (ip), vehicle: saline) was 86 % of control.
With `O=N/N=c1/sc2ccccc2n1-c1ccccc1` the T/C [7] was 100 % of control, the T/C [8] was 104 % of control and the T/C [9] was 100 % of control.
With `Nc1ccccc1C(=O)N/N=C\c1ccc(O)cc1` the T/C [10] was 110 % of control and the T/C [11] was 94 % of control.
In the case of `CCCCS(=O)(=O)OCCCCOS(=O)(=O)CCCC`, the T/C [10] is reported as 113 % of control, the T/C [4] is reported as 104 % of control and the T/C [11] is reported as 118 % of control. For the same compound, the T/C [5] was 109 % of control, the T/C (dose: 264.0 mg/kg/injection, schedule: Q04DX003 (ip), vehicle: saline with Tween-80) was 91 % of control and the T/C [12] was 122 % of control. The T/C [6] was 95 % of control and the T/C (dose: 600.0 mg/kg/injection, schedule: Q04DX003 (ip), vehicle: saline with Tween-80) was 104 % of control.
In the case of `CNc1cccnc1/C=N/NC(N)=S`, the T/C [13] is reported as 194 % of control and the T/C [10] is reported as 181 % of control.
For `OC1(CSc2ccccc2)CCCCC1`, the T/C [13] was 111 % of control, the T/C [10] was 116 % of control and 119 % of control and the T/C [11] was 116 % of control. For the same compound, the T/C [12] was 122 % of control.
With `Cc1cccc(C(=O)O)[n+]1[O-]` the T/C [10] was 95 % of control, the T/C [11] was 90 % of control and the T/C [12] was 90 % of control.
For `O=C1Oc2ccccc2C(=O)/C1=C1/C=C(c2ccccc2)SS1`, the T/C [13] was 90 % of control, the T/C [10] was 88 % of control and the T/C [11] was 90 % of control.
In the case of `COC(=O)c1ccc(OS(=O)(=O)c2cccc([N+](=O)[O-])c2)cc1`, the T/C [10] is reported as 88 % of control, the T/C [1] is reported as 100 % of control and the T/C [11] is reported as 100 % of control. The T/C [2] was 100 % of control, the T/C [12] was 88 % of control and the T/C [3] was 100 % of control.
With `CN(C)C(=S)NCc1ccccc1` the T/C [13] was 109 % of control, the T/C [10] was 100 % of control and the T/C [11] was 100 % of control.
For `OB(O)C1=CC(c2ccccc2)(c2ccccc2)N=C1`, the T/C [7] was 100 % of control, the T/C [8] was 100 % of control and the T/C [9] was 104 % of control.
With `CCOC(=O)CCc1nc(C(=O)OCC)c(C)c(=O)[nH]1` the T/C [4] was 107 % of control, the T/C [5] was 103 % of control and the T/C [6] was 100 % of control.
With `O=C(Nc1ccccc1F)Nc1cc(Cl)ccc1Cl` the T/C (dose: 50.0 mg/kg/injection, schedule: Q04DX003 (ip), vehicle: saline sonified) was 90 % of control, the T/C (dose: 100.0 mg/kg/injection, schedule: Q04DX003 (ip), vehicle: saline sonified) was 86 % of control and the T/C (dose: 200.0 mg/kg/injection, schedule: Q04DX003 (ip), vehicle: saline sonified) was 90 % of control.
`COC(C(=O)C(O)C(C)O)C1Cc2cc3cc(OC4CC(OC5CC(O)C(O)C(C)O5)C(O)C(C)O4)c(C)c(O)c3c(O)c2C(=O)C1OC1CC(OC2CC(O)C(OC3CC(C)(O)C(O)C(C)O3)C(C)O2)C(O)C(C)O1` (centres undefined) was tested, and the T/C (dose: 0.03 mg/kg/injection, schedule: Q01DX009 (ip), vehicle: saline) was 101 % of control, the T/C (dose: 0.06 mg/kg/injection, schedule: Q01DX009 (ip), vehicle: saline) was 106 % of control and the T/C (dose: 0.13 mg/kg/injection, schedule: Q04DX003 (ip), vehicle: saline) was 98 % of control. The T/C (dose: 0.25 mg/kg/injection, schedule: Q01DX009 (ip), vehicle: saline) was 150 % of control, the T/C (dose: 0.25 mg/kg/injection, schedule: Q04DX003 (ip), vehicle: saline) was 107 % of control and the T/C (dose: 0.5 mg/kg/injection, schedule: Q01DX009 (ip), vehicle: saline) was 170 % of control. The T/C (dose: 0.5 mg/kg/injection, schedule: Q04DX003 (ip), vehicle: saline) was 101 % of control and the T/C (dose: 1.0 mg/kg/injection, schedule: Q01DX009 (ip), vehicle: saline) was 120 % of control.
For `CC1=C(c2ccccc2)C(c2ccccc2)C(/C=C/c2ccccc2)=NC=C1c1ccccc1` (centres undefined), the T/C [13] was 108 % of control, the T/C [10] was 94 % of control and the T/C [11] was 97 % of control.
With `CC1OC(=O)C(C(C)C)NC(=O)C(C(C)C)OC(=O)C(C(C)C)NC(=O)C(C)OC(=O)C(C(C)C)NC(=O)C(C(C)C)OC(=O)C(C(C)C)NC(=O)C(C)OC(=O)C(C(C)C)NC(=O)C(C(C)C)OC(=O)C(C(C)C)NC1=O` (centres undefined) the T/C (dose: 3.12 mg/kg/injection, schedule: Q04DX003 (ip), vehicle: Klucel (hydroxypropylcellulose) (HPC)) was 100 % of control, the T/C (dose: 4.5 mg/kg/injection, schedule: Q01DX009 (ip), vehicle: saline) was 162 % of control and the T/C (dose: 6.25 mg/kg/injection, schedule: Q04DX003 (ip), vehicle: Klucel (hydroxypropylcellulose) (HPC)) was 107 % of control. For the same compound, the T/C (dose: 10.0 mg/kg/injection, schedule: Q01DX009 (ip), vehicle: saline) was 183 % of control, the T/C (dose: 12.5 mg/kg/injection, schedule: Q04DX003 (ip), vehicle: Klucel (hydroxypropylcellulose) (HPC)) was 169 % of control and the T/C (dose: 15.0 mg/kg/injection, schedule: Q01DX009 (ip), vehicle: saline) was 177 % of control. The T/C (dose: 20.0 mg/kg/injection, schedule: Q01DX009 (ip), vehicle: Klucel (hydroxypropylcellulose) (HPC)) was 165 % of control.
For `Cc1cc2c(cc1C)C(O)C(N1CCN(C)CC1)CCC2` (centres undefined), the T/C (dose: 50.0 mg/kg/injection, schedule: Q04DX003 (ip), vehicle: saline with Tween-80) was 109 % of control, the T/C [4] was 100 % of control and the T/C [5] was 100 % of control.
With `CCC(=O)OCc1c(C)nc2sccn12` the T/C (dose: 25.0 mg/kg/injection, schedule: Q01DX001 (ip), vehicle: saline) was 96 % of control, the T/C (dose: 50.0 mg/kg/injection, schedule: Q01DX001 (ip), vehicle: saline) was 102 % of control and the T/C (dose: 100.0 mg/kg/injection, schedule: Q01DX001 (ip), vehicle: saline) was 105 % of control.
In the case of `CCc1ccc(OS(=O)(=O)c2ccc([N+](=O)[O-])cc2)cc1`, the T/C (dose: 75.0 mg/kg/injection, schedule: Q01DX001 (ip), vehicle: saline with Tween-80) is reported as 104 % of control, the T/C (dose: 150.0 mg/kg/injection, schedule: Q01DX001 (ip), vehicle: saline with Tween-80) is reported as 100 % of control and the T/C (dose: 300.0 mg/kg/injection, schedule: Q01DX001 (ip), vehicle: saline with Tween-80) is reported as 100 % of control.
